Measured values from ChEMBL document CHEMBL1155966, “Efficient synthesis of (+/-)-parasitenone, a novel inhibitor of NF-kappaB” (Bioorg Med Chem Lett, 2009).
Active and inactive are the calls of the source. The calls are words filed in the database; no cut-off is given here.

Columns and labels:
RAW264.7 [1] = test: Antiinflammatory activity in mouse RAW264.7 cells assessed as inhibition of LPS-stimulated nitric oxide production at 10 ug/ml treated for 1 hr before LPS challenge measured after 24 hrs by Griess reagent method; assay type: functional, cell-based
RAW264.7 [2] = test: Inhibition of NF-kappaB transcriptional activity in LPS-stimulated mouse RAW264.7 cells treated for 1 hr before LPS challenge measured after 6 hrs by luciferase reporter gene assay; assay type: cell-based
[3] = tested on: Radical scavenging activity; test: Antioxidant activity assessed as DPPH radical scavenging activity; assay type: functional
[4] = Antioxidant activity assessed as peroxynitrite radical scavenging activity; assay type: functional
RAW264.7 [5] = test: Cytotoxicity against mouse RAW264.7 cells assessed as reduction of cell viability at 30 ug/ml after 48 hrs by trypan blue exclusion assay; assay type: cell-based; conditions: raw264.7, 48 h
RAW264.7 [6] = test: Growth inhibition of mouse RAW264.7 cells at 10 ug/ml after 48 hrs by trypan blue exclusion assay; assay type: cell-based; conditions: raw264.7, 48 h
RAW264.7 [7] = test: Antiinflammatory activity in mouse RAW264.7 cells assessed as inhibition of LPS-stimulated nitric oxide production treated for 1 hr before LPS challenge measured after 24 hrs by Griess reagent method; assay type: functional, cell-based
RAW264.7 [8] = test: Antiinflammatory activity in mouse RAW264.7 cells assessed as inhibition of LPS-stimulated iNOS expression treated for 1 hr before LPS challenge measured after 24 hrs by immunoblotting; assay type: functional, cell-based

| Compound | Activity (RAW264.7 [1]) | Activity (RAW264.7 [2]) | IC50 [3] | IC50 [4] | Activity (RAW264.7 [5]) | Activity (RAW264.7 [6]) | Activity (RAW264.7 [7]) | Activity (RAW264.7 [8]) |
| --- | --- | --- | --- | --- | --- | --- | --- | --- |
| O=C(O)c1ccccc1O | inactive |  |  |  |  |  |  |  |
| O=C(NC1=CC(=O)[C@H]2O[C@H]2[C@H]1O)c1ccccc1O [DEHYDROXYMETHYLEPOXYQUINOMICIN] |  | Active | 57 µM | 52.6 µM |  |  |  |  |
| O=C1C=C(CO)[C@H](O)[C@@H]2O[C@H]12 [PARASITENONE] | Active | Active |  |  | Active | Active | Dose-dependent effect | Dose-dependent effect |
